Results taken from patent US20180318271A1, “Use of PDE4 Inhibitors for the Prophylaxis and/or Therapy of Dyslipoproteinaemia and Related Disorders” (Albert-Ludwigs-Universität Freiburg, priority 2015, published 2018).

Experiment: clinical trial: lipoprotein profiles in blood serum of patients treated with a PDE4 inhibitor (ultracentrifugation density separation)
Type: in vivo, human
Procedure: In a clinical trial, five patients were treated by daily doses of a PDE4 inhibitor. As an exemplifying and representative compound, roflumilast was used as the PDE4 inhibitor. Lipoprotein profiles were measured at start of the therapy (time T0), four weeks after start (T1) and eight weeks after start (T2). Treatment was further monitored thereafter. In an embodiment, a first unit dose ([…]) was administered orally every second day for a period of four weeks, and subsequently the dose was increased to a unit of […] per day until a time of 8 weeks.
For analysing and measuring the lipoprotein profiles and thus the relative concentrations and levels of lipoprotein fractions and the cholesterol and triglyceride amounts per lipoprotein, 10 ml venous blood was drawn at the indicated time Points. Lipoprotein profiles and fractions were determined using density separation by means of ultra-centrifugation and subsequent determination of the lipoprotein components (Baumstark et al., Biochem. Biophys. Acta—Protein Structure and Molecular Enzymology 1037, 48-57 (1990); Frey et al., Eur. J. Appl, Physiol. 60, 441-444 (1990)). The components and parameters determined include cholesterol and triglyceride proportions of HDL and LDL, and of sub-fractions LDL-1 to LDL-6, and HDL-2a-2b and -3. Statistical analysis of the results was carried out by SPSS 23.0.

[1] = five patients, oral roflumilast, T1 (4 weeks) and T2 (8 weeks) compared to T0, blood serum
[2] = five patients, oral roflumilast, blood serum

With O=C(Nc1c(Cl)cncc1Cl)c1ccc(OC(F)F)c(OCC2CC2)c1 [roflumilast, 3-cyclopropylmethoxy-4-difluoromethoxy-N-(3,5-dichloropyrid-4-yl)-benzamide] the “persistence of the reduction of LDL-C” value (after 12 weeks (not shown)) was “maintained over longer time periods”, the “persistence of the reduction of LDL-TG” value (after 12 weeks (not shown)) was “maintained over longer time periods” and the “change of LDL-TG” value [1] was “substantially reduced”. For the same molecule, the “reduction of LDL-C” value [1] was “approximately 30 mg/dl”, the “change of HDL-C” value [2] was “Slight reductions” and the “change of HDL-TG” value [2] was “Slight reductions”.
